According to publication PMC9966181, “Polyphenols with Anti-Inflammatory Properties: Synthesis and Biological Activity of Novel Curcumin Derivatives” (International Journal of Molecular Sciences, 2023):

Legend:
Type in all cases: cell-based, C57BL/6 mice
IL-6 production = assay: Inhibition of IL-6 production in LPS-stimulated peritoneal macrophages (ELISA); conditions: for IC50: peritoneal macrophages, compounds 1 h before 10 ng/mL LPS, supernatant after 6 h, average of three independent experiments in duplicate ± S.D.; for Relative activity on IL-6 production (SAR ranking): ranking in discussion; for Dose-dependent inhibition of IL-6 production: 1, 3, 10, 30 μM, 10 ng/mL LPS; for Dose-dependent inhibition of IL-6 production / Effect on production of IL-6 at single concentration: 6 h; for Effect on production of IL-6 at single concentration: 30 μM, 1 h before 10 ng/mL LPS
Protocol: (§1) Peritoneal macrophages were obtained four days after i.p. instillation of 2 mL of thioglycollate 3%, by peritoneal washing with chilled RPMI. Cells were seeded in RPMI with 10% FCS at 2 × 10^5/well in 96-well plates and cultured for 2 h at 37 °C in an atmosphere of 5% CO2. Cells were treated with compounds 1–15 (30 μM) 1 h before the stimulus with 10 ng/mL of LPS. For dose response experiments, cells were pre-treated with different concentrations (1, 3, 10, 30 μM) of compounds 1, 2, 4, 5, 6, 8, 10, 13, and 15 before the stimulation with 10 ng/mL of LPS. All the treatments and controls were performed in the presence of 0.5% of DMSO, as compounds are solubilized in this solvent. Supernatants were collected 6h after the stimulus with LPS.
(§2) Peritoneal macrophages were cultured as previously described. The concentrations of IL-6 were determined by ELISA (DuoSet kit, R&D System) according to the manufacturer’s protocol. The concentration of prostaglandin E2 (PGE2) was determined using the “Prostaglandin E2 ELISA Kit - Monoclonal” from Cayman CHEMICAL, according to the manufacturer’s protocol.
(§3) Results were analyzed using the statistical software package GraphPad Prism 5. Data are presented as means ± S.E.M. Statistical analysis was performed by Student’s t-test. A significant difference between groups was considered when p < 0.05. The half maximal inhibitory concentration (IC50) was calculated by adjusting a sigmoidal dose–response curve following GraphPad Prism5 procedure.

PGE2 production = assay: Inhibition of PGE2 production in LPS-stimulated peritoneal macrophages (ELISA); conditions: for IC50: peritoneal macrophages, compounds 1 h before 10 ng/mL LPS, supernatant after 6 h, average of three independent experiments in duplicate ± S.D.; for Relative activity on PGE2 production (SAR ranking): ranking among the monofunctionalized, discussion
Protocol: as §1, §2, §3

Peritoneal macrophages = assay: Cytotoxicity assay (MTT) on peritoneal macrophages; conditions: 30 μM, after supernatant collection
Protocol: as §1
After the removal of supernatants, 100 µL of MTT (0.5 mg/mL) dissolved in RPMI were added to each well and cells were incubated overnight at 37 °C. The supernatants were removed and formazan crystals were dissolved in 100 µL of 0.04 M HCl in isopropanol. The color was analyzed at 570 nm using an ELISA plate reader. The percent of viable cells was calculated using the formula: % viability: [(OD sample) × 100%]/(OD control). The non-stimulated cells, cultured in medium plus 10% FCS and 0.5% DMSO, represented 100% viability.

[1] = Mus musculus, Peritoneal macrophage

Row | Molecule | Relative activity on IL-6 production (SAR ranking) (IL-6 production) | Relative activity on PGE2 production (SAR ranking) (PGE2 production) | IC50 (IL-6 production; [1]) [µM] | IC50 (PGE2 production; [1]) [µM] | Effect on production of IL-6 at single concentration (IL-6 production) | other results
1 | 4-((1E,4Z,6E)-5-Hydroxy-7-(4-hydroxy-3-methoxyphenyl)-3-oxohepta-1,4,6-trien-1-yl)-2-methoxyphenyl (1,2,3,4-tetrahydronaphthalen-1-yl) Succinate [Compound 15] | less active | showed activity | – | – | – | IC50 (IL-6 production): 10.4 ± 0.75 µM; Effect on PGE2 production at 3 μM (PGE2 production; 3 μM): significantly reduced PGE2 production; IC50 (PGE2 production): 3.07 ± 0.72 µM
2 | COc1cc(/C=C/C(O)=C/C(=O)/C=C/c2ccc(OCc3ccccc3)c(OC)c2)ccc1O [Compound 2, reference compound] | – | – | 3.59 ± 0.27 | 0.51 ± 0.08 | – | Effect on IL-6 production at lowest concentration (IL-6 production; 1 μM): statistically significant inhibitory effect; Dose-dependent inhibition of IL-6 production (IL-6 production): inhibited the production of IL-6 in a dose-dependent manner; Effect on PGE2 production at 1 μM (PGE2 production; 1 μM): showed an effect; Dose-dependent inhibition of PGE2 production (PGE2 production; 1, 3, 10, 30 μM, 10 ng/mL LPS, 6 h): inhibitory effect on PGE2 production at all concentrations tested
3 | COc1cc(/C=C/C(=O)/C=C(O)/C=C/c2ccc(OC(=O)CCC(=O)OC3C4CC5CC(C4)CC3C5)c(OC)c2)ccc1OC(=O)CCC(=O)OC1C2CC3CC(C2)CC1C3 (centres unmarked) [Compound 3, Di((1r,3r,5r,7r)-adamantan-2-yl) O,O′-(((1E,3Z,6E)-3-hydroxy-5-oxohepta-1,3,6-triene-1,7-diyl)bis(2-methoxy-4,1-phenylene)) Disuccinate] | – | – | – | – | did not show this activity | –
4 | COc1cc(/C=C/C(O)=C/C(=O)/C=C/c2ccc(OC(=O)CCC(=O)OC3C4CC5CC(C4)CC3C5)c(OC)c2)ccc1O (centres unmarked) [Compound 4, (1r,3r,5r,7r)-Adamantan-2-yl (4-((1E,4Z,6E)-5-hydroxy-7-(4-hydroxy-3-methoxyphenyl)-3-oxohepta-1,4,6-trien-1-yl)-2-methoxyphenyl) Succinate] | less active | lowest activity | 10.5 ± 0.6 | 4.5 ± 3.18 | inhibited the production of IL-6 | –
5 | COc1cc(/C=C/C(O)=C/C(=O)/C=C/c2ccc(OC(=O)CCC(=O)OCc3ccc4c(c3)C(=O)c3ccccc3C4=O)c(OC)c2)ccc1O [Compound 5, (9,10-Dioxo-9,10-dihydroanthracen-2-yl)methyl (4-((1E,4Z,6E)-5-hydroxy-7-(4-hydroxy-3-methoxyphenyl)-3-oxohepta-1,4,6-trien-1-yl)-2-methoxyphenyl) Succinate] | less active | showed activity | 7.11 ± 0.75 | 2.6 ± 1.75 | – | –
6 | COc1cc(/C=C/C(O)=C/C(=O)/C=C/c2ccc(OC(=O)CCC(=O)OC(c3ccccc3)c3ccccc3)c(OC)c2)ccc1O [Compound 6, Benzhydryl (4-((1E,4Z,6E)-5-hydroxy-7-(4-hydroxy-3-methoxyphenyl)-3-oxohepta-1,4,6-trien-1-yl)-2-methoxyphenyl) Succinate] | – | showed activity | 4.21 ± 0.73 | 4.43 ± 0.85 | inhibited the production of IL-6 | –
7 | COc1cc(/C=C/C(=O)/C=C(O)/C=C/c2ccc(OC(=O)CCC(=O)OC(c3ccccc3)C3CCCCC3)c(OC)c2)ccc1OC(=O)CCC(=O)OC(c1ccccc1)C1CCCCC1 (centres unmarked) [Compound 7, Bis(cyclohexyl(phenyl)methyl) O,O′-(((1E,3Z,6E)-3-hydroxy-5-oxohepta-1,3,6-triene-1,7-diyl)bis(2-methoxy-4,1-phenylene)) Disuccinate] | – | – | – | – | did not show this activity | –
8 | COc1cc(/C=C/C(O)=C/C(=O)/C=C/c2ccc(OC(=O)CCC(=O)OC(c3ccccc3)C3CCCCC3)c(OC)c2)ccc1O (centres unmarked) [Compound 8, Cyclohexyl(phenyl)methyl (4-((1E,4Z,6E)-5-hydroxy-7-(4-hydroxy-3-methoxyphenyl)-3-oxohepta-1,4,6-trien-1-yl)-2-methoxyphenyl) Succinate] | – | lowest activity | 1.94 ± 0.66 | 5.9 ± 2.38 | not statistically significant | –
9 | COc1cc(/C=C/C(=O)/C=C(O)/C=C/c2ccc(OC(=O)CCC(=O)OC3c4ccccc4-c4ccccc43)c(OC)c2)ccc1OC(=O)CCC(=O)OC1c2ccccc2-c2ccccc21 [Compound 9, Di(9H-fluoren-9-yl) O,O′-(((1E,3Z,6E)-3-hydroxy-5-oxohepta-1,3,6-triene-1,7-diyl)bis(2-methoxy-4,1-phenylene)) Disuccinate] | – | – | – | – | did not show this activity | –
10 | COc1cc(/C=C/C(O)=C/C(=O)/C=C/c2ccc(OC(=O)CCC(=O)OC3c4ccccc4-c4ccccc43)c(OC)c2)ccc1O [Compound 10, 9H-Fluoren-9-yl (4-((1E,4Z,6E)-5-hydroxy-7-(4-hydroxy-3-methoxyphenyl)-3-oxohepta-1,4,6-trien-1-yl)-2-methoxyphenyl) Succinate] | – | lowest activity | 3.6 ± 0.21 | 5.93 ± 2.29 | inhibited the production of IL-6 | –
11 | COc1cc(/C=C/C(O)=C/C(=O)/C=C/c2ccc(OC(=O)CCC(=O)O[C@@H]3C[C@H](C)CC[C@H]3C(C)C)c(OC)c2)ccc1OC(=O)CCC(=O)O[C@H]1C[C@@H](C)CC[C@@H]1C(C)C [Compound 12, O,O′-(((1E,3Z,6E)-3-Hydroxy-5-oxohepta-1,3,6-triene-1,7-diyl)bis(2-methoxy-4,1-phenylene)) bis((1R,2S,5R)-2-isopropyl-5-methylcyclohexyl) Disuccinate] | – | – | – | – | did not show this activity | –
12 | COc1cc(/C=C/C(O)=C/C(=O)/C=C/c2ccc(OC(=O)CCC(=O)O[C@@H]3C[C@H](C)CC[C@H]3C(C)C)c(OC)c2)ccc1O [Compound 13, 4-((1E,4Z,6E)-5-Hydroxy-7-(4-hydroxy-3-methoxyphenyl)-3-oxohepta-1,4,6-trien-1-yl)-2-methoxyphenyl((1R,2S,5R)-2-isopropyl-5-methylcyclohexyl) Succinate] | less active | lowest activity | 10.6 ± 0.33 | 5.42 ± 2.04 | – | –
13 | Curcumin [Compound 1, reference compound] | – | – | – | – | – | Dose-dependent inhibition of IL-6 production (IL-6 production): inhibited the production of IL-6 in a dose-dependent manner; IC50 (IL-6 production): 6.85 ± 2.5 µM; IC50 (PGE2 production): 1.34 ± 0.067 µM; Cytotoxicity / cell viability (MTT) (Peritoneal macrophages): affected cell viability
